# From patent US20100267561A1, “HERBICIDAL PYRIDAZINONE DERIVATIVES” (priority 2007, published 2010)
# Legend:
# Format in all cases: in vivo
# [1] = tested on: downy bromegrass (Bromus tectorum); experiment: Test C pre-/postemergence plant response
# Outline: (§1)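 Seeds are planted and sprayed preemergence, while established plants at the 1- to 4-leaf stage (2 to 18 cm) receive postemergence sprays of the same surfactant-containing, non-phytotoxic solvent formulation. After 15 to 25 days under controlled conditions, injury is scored visually from 0 (no effect) to 100 (complete control).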
# [2] = tested on: spring wheat (Triticum aestivum); experiment: Test C pre-/postemergence plant response
# Outline: as §1
# wild oat (Avena fatua) = experiment: Test C pre-/postemergence plant response
# Outline: as §1
# [3] = tested on: windgrass (Apera spica-venti); experiment: Test C pre-/postemergence plant response
# Outline: as §1
# [4] = tested on: green foxtail (Setaria viridis); experiment: Test C pre-/postemergence plant response
# Outline: as §1
# [5] = tested on: winter wheat (Triticum aestivum); experiment: Test C pre-/postemergence plant response
# Outline: as §1
# [6] = tested on: annual bluegrass (Poa annua); experiment: Test C pre-/postemergence plant response
# Outline: as §1
# [7] = tested on: Italian ryegrass (Lolium multiflorum); experiment: Test C pre-/postemergence plant response
# Outline: as §1
# [8] = tested on: wild mustard (Sinapis arvensis); experiment: Test C pre-/postemergence plant response
# Outline: as §1
# [9] = tested on: pigweed (Amaranthus retroflexus); experiment: Test C pre-/postemergence plant response
# Outline: as §1
# [10] = tested on: spring barley (Hordeum vulgare); experiment: Test C pre-/postemergence plant response
# Outline: as §1
# [11] = tested on: blackgrass (Alopecurus myosuroides); experiment: Test C pre-/postemergence plant response
# Outline: as §1
# [12] = tested on: canarygrass (Phalaris minor); experiment: Test C pre-/postemergence plant response
# Outline: as §1
# [13] = tested on: umbrella sedge (Cyperus difformis); experiment: Test B flooded paddy test plant response
# Outline: (§2)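 Rice, umbrella sedge, ducksalad and barnyardgrass at 2-leaf stage; pots flooded to 3 cm, compounds applied into paddy water, depth held throughout. Greenhouse 13 to 15 days, then visual rating vs untreated controls on 0–100 scale (0 no effect, 100 complete control); dash means no test result.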
# [14] = tested on: ducksalad (Heteranthera limosa); experiment: Test B flooded paddy test plant response
# Outline: as §2
# [15] = tested on: barnyardgrass (Echinochloa crus-galli); experiment: Test B flooded paddy test plant response
# Outline: as §2
# [16] = Postemergence, 8 g ai/ha, scale 0 to 100, 0 no effect, 100 complete control
# [17] = Postemergence, 16 g ai/ha, scale 0 to 100, 0 no effect, 100 complete control
# [18] = Postemergence, 31 g ai/ha, scale 0 to 100, 0 no effect, 100 complete control
# [19] = Postemergence, 62 g ai/ha, scale 0 to 100, 0 no effect, 100 complete control
# [20] = Preemergence, 8 g ai/ha, scale 0 to 100 (0 no effect, 100 complete control)
# [21] = Preemergence, 16 g ai/ha, scale 0 to 100 (0 no effect, 100 complete control)
# [22] = Preemergence, 31 g ai/ha, scale 0 to 100 (0 no effect, 100 complete control)
# [23] = Preemergence, 62 g ai/ha, scale 0 to 100, 0 no effect, 100 complete control
# [24] = Flood (flooded paddy test), 62 g ai/ha, scale 0 to 100, 0 no effect, 100 complete control
# [25] = Flood (flooded paddy test), 125 g ai/ha, scale 0 to 100, 0 no effect, 100 complete control
# [26] = Flood (flooded paddy test), 250 g ai/ha, scale 0 to 100, 0 no effect, 100 complete control
# [27] = Flood, 31 g ai/ha, scale 0 to 100
compound,measurement,setting,value
CCCc1cc(-c2ccc(Cl)cc2)nn1-c1c(O)cnn(C)c1=O [Compound 43],"Plant response rating, Bromegrass, Downy",[1]; [16],0
same,"Plant response rating, Bromegrass, Downy",[1]; [17],0
same,"Plant response rating, Bromegrass, Downy",[1]; [18],0
same,"Plant response rating, Bromegrass, Downy",[1]; [19],75
same,"Plant response rating, Bromegrass, Downy",[1]; [20],10
same,"Plant response rating, Bromegrass, Downy",[1]; [21],25
same,"Plant response rating, Bromegrass, Downy",[1]; [22],40
same,"Plant response rating, Bromegrass, Downy",[1]; [23],75
same,"Plant response rating, Wheat, Spring",[2]; [16],0
same,"Plant response rating, Wheat, Spring",[2]; [17],15
same,"Plant response rating, Wheat, Spring",[2]; [18],60
same,"Plant response rating, Wheat, Spring",[2]; [19],90
same,"Plant response rating, Wheat, Spring",[2]; [20],0
same,"Plant response rating, Wheat, Spring",[2]; [21],0
same,"Plant response rating, Wheat, Spring",[2]; [22],30
same,"Plant response rating, Wheat, Spring",[2]; [23],65
same,"Plant response rating, Oat, Wild",wild oat (Avena fatua); [16],100
same,"Plant response rating, Oat, Wild",wild oat (Avena fatua); [17],100
same,"Plant response rating, Oat, Wild",wild oat (Avena fatua); [18],100
same,"Plant response rating, Oat, Wild",wild oat (Avena fatua); [19],100
same,"Plant response rating, Oat, Wild",wild oat (Avena fatua); [20],35
same,"Plant response rating, Oat, Wild",wild oat (Avena fatua); [21],70
same,"Plant response rating, Oat, Wild",wild oat (Avena fatua); [22],80
same,"Plant response rating, Oat, Wild",wild oat (Avena fatua); [23],98
same,"Plant response rating, Windgrass",[3]; [16],30
same,"Plant response rating, Windgrass",[3]; [17],60
same,"Plant response rating, Windgrass",[3]; [18],60
same,"Plant response rating, Windgrass",[3]; [19],60
same,"Plant response rating, Windgrass",[3]; [21],25
same,"Plant response rating, Windgrass",[3]; [22],80
same,"Plant response rating, Windgrass",[3]; [23],100
same,"Plant response rating, Foxtail, Green",[4]; [16],90
same,"Plant response rating, Foxtail, Green",[4]; [17],95
same,"Plant response rating, Foxtail, Green",[4]; [18],98
same,"Plant response rating, Foxtail, Green",[4]; [19],98
same,"Plant response rating, Foxtail, Green",[4]; [20],75
same,"Plant response rating, Foxtail, Green",[4]; [21],100
same,"Plant response rating, Foxtail, Green",[4]; [22],100
same,"Plant response rating, Foxtail, Green",[4]; [23],100
same,"Plant response rating, Wheat, Winter",[5]; [16],5
same,"Plant response rating, Wheat, Winter",[5]; [17],25
same,"Plant response rating, Wheat, Winter",[5]; [18],40
same,"Plant response rating, Wheat, Winter",[5]; [19],65
same,"Plant response rating, Wheat, Winter",[5]; [20],0
same,"Plant response rating, Wheat, Winter",[5]; [21],0
same,"Plant response rating, Wheat, Winter",[5]; [22],20
same,"Plant response rating, Wheat, Winter",[5]; [23],70
same,"Plant response rating, Bluegrass",[6]; [16],0
same,"Plant response rating, Bluegrass",[6]; [17],0
same,"Plant response rating, Bluegrass",[6]; [18],0
same,"Plant response rating, Bluegrass",[6]; [19],15
same,"Plant response rating, Bluegrass",[6]; [20],0
same,"Plant response rating, Bluegrass",[6]; [21],0
same,"Plant response rating, Bluegrass",[6]; [23],25
same,"Plant response rating, Ryegrass, Italian",[7]; [16],75
same,"Plant response rating, Ryegrass, Italian",[7]; [17],98
same,"Plant response rating, Ryegrass, Italian",[7]; [18],100
same,"Plant response rating, Ryegrass, Italian",[7]; [19],100
same,"Plant response rating, Ryegrass, Italian",[7]; [20],60
same,"Plant response rating, Ryegrass, Italian",[7]; [21],98
same,"Plant response rating, Ryegrass, Italian",[7]; [22],98
same,"Plant response rating, Ryegrass, Italian",[7]; [23],98
same,"Plant response rating, Mustard, Wild",[8]; [16],0
same,"Plant response rating, Mustard, Wild",[8]; [17],0
same,"Plant response rating, Mustard, Wild",[8]; [18],0
same,"Plant response rating, Mustard, Wild",[8]; [19],25
same,"Plant response rating, Mustard, Wild",[8]; [20],0
same,"Plant response rating, Mustard, Wild",[8]; [21],0
same,"Plant response rating, Mustard, Wild",[8]; [22],0
same,"Plant response rating, Mustard, Wild",[8]; [23],0
same,"Plant response rating, Pigweed",[9]; [16],0
same,"Plant response rating, Pigweed",[9]; [17],0
same,"Plant response rating, Pigweed",[9]; [18],0
same,"Plant response rating, Pigweed",[9]; [19],0
same,"Plant response rating, Pigweed",[9]; [20],0
same,"Plant response rating, Pigweed",[9]; [21],0
same,"Plant response rating, Pigweed",[9]; [22],0
same,"Plant response rating, Pigweed",[9]; [23],20
same,"Plant response rating, Barley, Spring",[10]; [16],20
same,"Plant response rating, Barley, Spring",[10]; [17],35
same,"Plant response rating, Barley, Spring",[10]; [18],50
same,"Plant response rating, Barley, Spring",[10]; [19],90
same,"Plant response rating, Barley, Spring",[10]; [20],0
same,"Plant response rating, Barley, Spring",[10]; [21],20
same,"Plant response rating, Barley, Spring",[10]; [22],35
same,"Plant response rating, Barley, Spring",[10]; [23],60
same,"Plant response rating, Blackgrass",[11]; [16],90
same,"Plant response rating, Blackgrass",[11]; [17],98
same,"Plant response rating, Blackgrass",[11]; [18],100
same,"Plant response rating, Blackgrass",[11]; [19],100
same,"Plant response rating, Blackgrass",[11]; [20],85
same,"Plant response rating, Blackgrass",[11]; [21],90
same,"Plant response rating, Blackgrass",[11]; [22],98
same,"Plant response rating, Blackgrass",[11]; [23],100
same,"Plant response rating, Canarygrass",[12]; [16],65
same,"Plant response rating, Canarygrass",[12]; [17],75
same,"Plant response rating, Canarygrass",[12]; [18],85
same,"Plant response rating, Canarygrass",[12]; [19],95
same,"Plant response rating, Canarygrass",[12]; [20],50
same,"Plant response rating, Canarygrass",[12]; [21],65
same,"Plant response rating, Canarygrass",[12]; [22],75
same,"Plant response rating, Canarygrass",[12]; [23],95
same,"Plant response rating, Sedge, Umbrella",[13]; [24],0
same,"Plant response rating, Sedge, Umbrella",[13]; [25],0
same,"Plant response rating, Sedge, Umbrella",[13]; [26],0
same,"Plant response rating, Sedge, Umbrella",[13]; [27],0
same,"Plant response rating, Ducksalad",[14]; [24],0
same,"Plant response rating, Ducksalad",[14]; [25],0
same,"Plant response rating, Ducksalad",[14]; [26],30
same,"Plant response rating, Ducksalad",[14]; [27],0
same,"Plant response rating, Barnyardgrass",[15]; [24],50
same,"Plant response rating, Barnyardgrass",[15]; [25],75
same,"Plant response rating, Barnyardgrass",[15]; [27],40
